In patent US9463216B2 (priority 2012, dated 2016):

Target: PA (Bacillus anthracis, UniProt P13423)
Type: binding, B. anthracis

PA, sequence (P13423 30-764 limits assumed): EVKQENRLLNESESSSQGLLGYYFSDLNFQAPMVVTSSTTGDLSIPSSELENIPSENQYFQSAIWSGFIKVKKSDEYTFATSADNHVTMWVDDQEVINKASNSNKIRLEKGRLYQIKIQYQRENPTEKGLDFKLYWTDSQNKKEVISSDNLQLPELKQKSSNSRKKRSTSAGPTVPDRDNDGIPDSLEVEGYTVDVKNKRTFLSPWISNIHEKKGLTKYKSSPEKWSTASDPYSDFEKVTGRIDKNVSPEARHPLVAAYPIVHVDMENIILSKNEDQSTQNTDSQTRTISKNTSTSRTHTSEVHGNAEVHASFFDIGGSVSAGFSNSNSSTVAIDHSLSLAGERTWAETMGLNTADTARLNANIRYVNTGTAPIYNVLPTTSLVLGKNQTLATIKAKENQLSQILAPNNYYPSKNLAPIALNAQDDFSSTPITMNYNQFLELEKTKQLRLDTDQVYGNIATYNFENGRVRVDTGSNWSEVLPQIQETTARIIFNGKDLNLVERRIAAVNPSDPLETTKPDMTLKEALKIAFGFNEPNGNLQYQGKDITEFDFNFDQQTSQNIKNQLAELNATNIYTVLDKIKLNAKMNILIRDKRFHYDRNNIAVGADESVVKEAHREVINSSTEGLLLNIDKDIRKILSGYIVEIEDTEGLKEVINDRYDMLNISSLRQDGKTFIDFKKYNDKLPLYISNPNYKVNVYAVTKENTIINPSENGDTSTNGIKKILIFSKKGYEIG

poly-γ-D-glutamic acid [Compound 3]
form complexes with PA: can form complexes with PA
